Tests used:
Experiment in all cases: Assay B: in vitro antibacterial activity, broth microdilution MIC (NCCLS)
Type in all cases: cell-based
[1] = system: Enterococcus faecalis PIU 1967; conditions: Table 2, Assay B, cation-adjusted Mueller Hinton broth, 35° C., 16 to 20 hr; code B = Enterococcus faecalis PIU 1967; unit assumed
In short: (§1)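 Growth inhibition read by eye after incubation at 35° C (16 to 20 hr; 20 to 24 hr for S. pneumoniae and H. influenzae). Medium: cation-adjusted Mueller Hinton broth, supplemented with 3% lysed horse blood or with 5 g/L yeast extract, 0.3 mmol/L hematin and 15 mg/L NAD, respectively.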

Escherichia coli JUHL = conditions: Table 2, Assay B, cation-adjusted Mueller Hinton broth, 35° C., 16 to 20 hr; code D = Escherichia coli JUHL; unit assumed
In short: as §1

[2] = system: Haemophilus influenzae DILL AMP R; conditions: Table 2, Assay B, Mueller Hinton broth with yeast extract, hematin and NAD, 20 to 24 hr; code E = Haemophilus influenzae DILL AMP R; unit assumed
In short: as §1

[3] = system: Staphylococcus aureus ATCC 6538P; conditions: Table 2, Assay B, cation-adjusted Mueller Hinton broth, 35° C., 16 to 20 hr; code A = Staphylococcus aureus ATCC 6538P; unit assumed
In short: as §1

[4] = system: Streptococcus pneumoniae ATCC 6303; conditions: Table 2, Assay B, Mueller Hinton broth with 3% lysed horse blood, 20 to 24 hr; code F = Streptococcus pneumoniae ATCC 6303; unit assumed
In short: as §1

| SMILES | Antibacterial Activity (MIC's), B [1] | Antibacterial Activity (MIC's), D (Escherichia coli JUHL) | Antibacterial Activity (MIC's), E [2] | Antibacterial Activity (MIC's), A [3] | Antibacterial Activity (MIC's), F [4] |
| --- | --- | --- | --- | --- | --- |
| COc1c(-c2cc3c(s2)S(=O)(=O)CCC3O)ccc2c(=O)c(C(=O)O)cn(C3CC3)c12 (stereo not drawn) [Example 135, 1-cyclopropyl-7-(4-hydroxy-7,7-dioxido-5,6-dihydro-4H-thieno[2,3-b]thiopyran-2-yl)-8-methoxy-4-oxo-1,4-dihydro-3-quinolinecarboxylic acid] | 1 µg/mL | 16 µg/mL | 1 µg/mL | 1 µg/mL | 4 µg/mL |
| CC1(C)CCc2cc(-c3cc4c(cc3F)c(=O)c(C(=O)O)cn4C3CC3)sc2C1O (stereo not drawn) [Example 342, 1-cyclopropyl-6-fluoro-7-(7-hydroxy-6,6-dimethyl-4,5,6,7-tetrahydro-1-benzothien-2-yl)-4-oxo-1,4-dihydroquinoline-3-carboxylic acid] | 0.25 µg/mL | 0.5 µg/mL | 0.25 µg/mL | 0.03 µg/mL | 0.125 µg/mL |
| COc1c(-c2cc3c(s2)C(=O)CCC3)ccc2c(=O)c(C(=O)O)cn(C3CC3)c12 [Example 61, 1-cyclopropyl-8-methoxy-4-oxo-7-(7-oxo-4,5,6,7-tetrahydro-1-benzothien-2-yl)-1,4-dihydro-3-quinolinecarboxylic acid] | 0.25 µg/mL | 2 µg/mL | 0.125 µg/mL | 0.03 µg/mL | 0.125 µg/mL |
| COc1c(-c2cc3c(s2)C(O)CCC3)c(F)cc2c(=O)c(C(=O)O)cn(C3CC3)c12 (stereo not drawn) [Example 299, 1-cyclopropyl-6-fluoro-7-(7-hydroxy-4,5,6,7-tetrahydro-1-benzothien-2-yl)-8-methoxy-4-oxo-1,4-dihydroquinoline-3-carboxylic acid] | 0.06 µg/mL | 0.125 µg/mL | 0.03 µg/mL | ≤ 0.004 µg/mL | 0.06 µg/mL |
| COc1c(-c2cc3c(s2)CC(C)(C)CC3)ccc2c(=O)c(C(=O)O)cn(C3CC3)c12 [Example 236, 1-cyclopropyl-7-(6,6-dimethyl-4,5,6,7-tetrahydro-1-benzothien-2-yl)-8-methoxy-4-oxo-1,4-dihydro-3-quinolinecarboxylic acid] | 1 µg/mL | 4 µg/mL | 0.5 µg/mL | 0.125 µg/mL | 4 µg/mL |
| COc1c(-c2cc3c(s2)C(N)CC(C)(C)C3)ccc2c(=O)c(C(=O)O)cn(C3CC3)c12.Cl (stereo not drawn) [Example 268, 7-(7-amino-5,5-dimethyl-4,5,6,7-tetrahydro-1-benzothien-2-yl)-1-cyclopropyl-8-methoxy-4-oxo-1,4-dihydroquinoline-3-carboxylic acid hydrochloride] | 0.25 µg/mL | 0.5 µg/mL | 0.25 µg/mL | 0.03 µg/mL | 0.06 µg/mL |
| COc1c(-c2cc3c(s2)CC(N)C3)ccc2c(=O)c(C(=O)O)cn(C3CC3)c12.Cl (stereo not drawn) [Example 249, 7-(5-amino-5,6-dihydro-4H-cyclopenta[b]thien-2-yl)-1-cyclopropyl-8-methoxy-4-oxo-1,4-dihydro-3-quinolinecarboxylic acid hydrochloride] | 0.125 µg/mL | 0.06 µg/mL | 0.015 µg/mL | 0.03 µg/mL | 0.5 µg/mL |
| COc1c(-c2sc3c(c2C)C(N)CCC3)ccc2c(=O)c(C(=O)O)cn(C3CC3)c12.Cl (stereo not drawn) [Example 232, 7-(4-amino-3-methyl-4,5,6,7-tetrahydro-1-benzothien-2-yl)-1-cyclopropyl-8-methoxy-4-oxo-1,4-dihydro-3-quinolinecarboxylic acid hydrochloride] | 0.5 µg/mL | 0.25 µg/mL | 0.125 µg/mL | 0.06 µg/mL | 0.125 µg/mL |
| Cc1c(-c2cc3c(s2)C(N)CCC3)c(F)cc2c(=O)c(C(=O)O)cn(C3CC3)c12.Cl (stereo not drawn) [Example 368, 7-(7-amino-4,5,6,7-tetrahydro-1-benzothien-2-yl)-1-cyclopropyl-6-fluoro-8-methyl-4-oxo-1,4-dihydroquinoline-3-carboxylic acid hydrochloride] | 0.06 µg/mL | 0.03 µg/mL | ≤ 0.004 µg/mL | 0.015 µg/mL | 0.03 µg/mL |

Reference: patent US20020049223A1, “Quinoline and naphthyridine carboxylic acid antibacterials” (priority 1999, published 2002)
